Test results: patent US12344599B2, “Prodigiosin analogs and methods of use” (Institute For Cancer Research, priority 2016, dated 2025)

What was measured:
[1] = test system: p53 target genes in HT29 cells; experiment: RNA-Seq gene profiling with IPA analysis; type: cell-based, human; conditions: HT29, 1 μM for 24 hours
Protocol: Having confirmed that PG3-Oc induces apoptosis in multiple p53-expressing mutant cancer cell lines, whether this small molecule restored p53 pathway signaling was investigated in HT29 cells after treatment with 1 μM PG3-Oc for 24 hours. For this purpose, gene profiling was performed by RNA-Seq and bioinformatics analysis, such as IPA (Ingenuity pathway analysis), GSEA (gene set enrichment analysis) and GO (gene ontology) (See details at Methods and Materials). […] Key p53 target gene CDKN1A (p21) that negatively regulate cell cycle and other p53 target genes that regulate apoptosis such as, TNFRSF10B (DR5), BBC3 (PUMA), BIRC5 (Survivin), TP53INP1 (Teap) were identified in canonical p53 pathway analysis. […] To verify that the behavior of regulation of p53 target genes by PG3-Oc is similar to p53 protein, based on published data (Fischer, Oncogene, 2017, 36(28), 3943-3956), genes directly repressed (FIG. 89) and activated (FIG. 90) by the p53 transcription factor were selected. […] This implicates that PG3-Oc is able to restore the p53 pathway.

HT29 cells = experiment: Western blot of apoptosis markers and PUMA, HT29; type: cell-based, human
Protocol: (§1) • 1) Cell lines: HT29, SW480, DLD-1, HCT116, and p53-null HCT116 cells, H1975, MDA-MD-231, U251, FaDu, CAL-27, PANC-1, Aspc-1, and MRC5 were obtained from the ATCC and cultured as recommended. Cells were regularly authenticated by bioluminescence, growth, and morphologic observation. The cells were routinely examined for Mycoplasma and all cell lines underwent STR authentication. • 2) Western blotting: After treatment, protein lysates were collected for Western blot analysis. 15 μg of protein was used for SDS-PAGE. After primary and secondary antibody incubations, the signal was detected by chemiluminescent detection kit, imaged by Syngene (Imgen Technologies). […] The cell viability was assessed by CellTiterGlo bioluminescent cell proliferation assay (Promega), following the manufacturer's protocol. Bioluminescence imaging was measured using the IVIS imager. Percentage of cell viability (mean±SEM) at each dose was calculated against the respective DMSO control. The IC50 values were determined from the sigmoidal dose-response curves using GraphPad Prims4. • 4) Caspase activity assay: Cells were seeded in 96-well plate (1×10^4 cells/well). […] The caspase 3/7 activity was assessed by Caspase-Glo® 3/7 Assay kit (Promega), following the manufacturer's protocol. Bioluminescence imaging was measured using the IVIS imager. […]

[2] = test system: PUMA and DR5 in HT29 and HCT116 p53−/− cell lines; experiment: Western blot of PUMA and DR5, comparison with regorafenib; type: cell-based, human; conditions: 4 μM, 24-hour time point
Protocol: After treatment, protein lysates were collected for Western blot analysis. A total of […] of protein was used for SDS-PAGE. After primary and secondary antibody incubations, the signal was detected by a chemiluminescence detection kit, imaged by Syngene (Imgen Technologies). Antibodies for PUMA (for IHC), p53 (Santa Cruz Biotechnology), caspase 8, cleaved caspase 8, caspase 9, caspase 3, cleavage PARP, eIF2α, p-eIF2α (Ser51), CHOP, ATF4, DR5, FOXO3a, p-FOXO3a (Ser253), NF-κB p65, p-NF-κB p65 (Ser536), c-Jun, p-c-Jun (Ser63), JNK, p-JNK (Thr183/Tyr185), PUMA (for WB), c-Myc, phosphor-S62-cMyc (Cell Signaling Technology), Noxa, p21 (Calbiochem), p73 (Bethyl laboratories Inc), Ran (BD Biosciences), […] (Sigma).
Regorafenib is an FDA-approved drug for treatment of metastatic colorectal cancer, advanced gastrointestinal stromal tumors and hepatocellular carcinoma. Regorafenib inhibits ERK and leads to the induction of PUMA through the GSK3β/NF-κB axis and induces PUMA-mediated apoptosis in colon cancer cell lines (Chen et al., Clin Cancer Res, 2014, 20, 3472-3484). PG3-Oc was compared with regorafenib in the induction of PUMA and DR5. Regorafenib (40 μM and 24 hours treatment) was used as a control, as previously reported (Chen et al., Clin Cancer Res, 2014, 20, 3472-3484).

U251 = experiment: CellTiterGlo cell viability assay, U251; type: cell-based; conditions: Homo sapiens, U-251; U251, glioblastoma multiforme, p53 R273H, 72 hours
Protocol: as §1

Compound: CCCCCCCCOC(=O)CCc1c(C)[nH]c(/C=C2\N=C(c3ccc[nH]3)C=C2OC)c1C [PG3-Oc, Octyl (Z)-3-(5-((4′-methoxy-1H,5′H-[2,2′-bipyrrol]-5′-ylidene)methyl)-2,4-dimethyl-1H-pyrrol-3-yl)propanoate]
- PMAIP1 (Noxa) increase as compared to control [1]: 1.9 fold
- time at which PUMA protein was first induced post treatment (HT29 cells; HT29, time-course): 16 h
- concentration sufficient to activate cleaved caspase-8 and -3 and cleaved-PARP (HT29 cells; western blot): 0.5 µM
- level of PUMA and DR5 induced compared to 40 μM regorafenib [2]: much higher level of PUMA and DR5
- IC50 (U251): 100 nM
